A short description of series [1]: Determination of the Acute Toxicity (acute seven-day toxicity). The note with it: mouse, in vivo, ip, fasting white NMRI mouse, single i.p. dose. On the procedure: The acute seven-day toxicity is determined by intraperitoneal administration of a single dose of the respective compound to a fasting white NMRI mouse. The LD50 -values are calculated via electronic data processing by a probit analysis as described in the book "Grundbegriffe der Biometrie" (Basic Biometrical Definitions) by L. Cavalli-Sforza, page 153 et seq., published by Gustav Fischer Verlag, Stuttgart, 1964.

The test system of series [2] is gastric peristalsis. The series is described as follows: Testing of the Gastric Peristalsis (gastric pressure waves, narcotized rats). It counts as in vivo, rat. The note with it: before vs after administration; for inhibition in vivo at 20 mg/kg: Rattus norvegicus, ip, read-out: Frequency Decrease in %; for Factor of the Increase in Amplitude: i.p., 20 mg/kg. From the text: To determine the functioning of the gastric peristalsis, rats weighing about 200 g are narcotized by means of ketamine hydrochloride and xylazine. A catheter is introduced into the Vena jugularis of the narcotized rats and a tracheal catheter into the trachea. A stomach probe is inserted into their stomach and tied thereto. The probe is connected via a three-way cock with a Statham pressure imparting device (P 23 DB). The stomach is sealed off by a ligature at the pylorus and at the cardia. The stomach is filled with 3 ml of an 0.9% aqueous sodium chloride solution. The pressure waves produced by the stomach are continuously registered by a suitable recording device such as by a Watanabe Multicorder (MC 641). In order to determine the effect of the compounds to be tested, they are dissolved in physiological sodium chloride solution or are suspended in Tylose MH 50 solution. Said solutions or suspensions are administered intraperitoneally to the rats in a dose of 20 mg/kg. The amplitudes and frequencies of the pressure wave-like movements of the stomach as they occur before and after administration of the compound to be tested, are compared.
This effect in combination with a pronounced decrease in the frequencies of varying magnitude results in an improved food passage through the stomach.

As usually defined, the LD50 is the dose at which mortality reaches 50%. Read a high LD50 as a less toxic substance.

`CNC1COc2ccccc2C(=O)C1` (racemic) [Compound 1, rac.-3-methylamino-3,4-dihydro-1-benzoxepin-5(2H)-one]: in series [1], the LD50 at 168 h is 137 mg/kg. In series [2], the inhibition in vivo at 20 mg/kg worked out at 8% and the “Factor of the Increase in Amplitude” value came out at 1.6.
With `CC(C)NC1COc2ccccc2C(=O)C1` (racemic) [Compound 2, rac.-3-isopropylamino-3,4-dihydro-1-benzoxepin-5(2H)-one], in series [1], the LD50 at 168 h was found to be 183 mg/kg. Also, in series [2], the inhibition in vivo at 20 mg/kg is 16% and the “Factor of the Increase in Amplitude” value came out at 2.6.
For `O=C1CC(NCc2ccccc2)COc2ccccc21` (racemic) [Compound 3, rac.-3-benzylamino-3,4-dihydro-1-benzoxepin-5(2H)-one] the same measures were 253 mg/kg, 7% and 3.6.
For `CN(C)CCCNC1COc2ccccc2C(=O)C1` (racemic) [Compound 4, rac.-3-(γ-dimethylamino-propylamino)-3,4-dihydro-1-benzoxepin-5(2H)-one] the same measures were 272 mg/kg, 25% and 3.7.
Compound `CN(C)C1COc2ccccc2C(=O)C1` (racemic) [Compound 5, rac.-3-dimethylamino-3,4-dihydro-1-benzoxepin-5(2H)-one] registered a median lethal dose (LD50) at 168 h in series [1] of 285 mg/kg. In series [2], the inhibition in vivo at 20 mg/kg worked out at 12% and the “Factor of the Increase in Amplitude” value is 1.3.
In series [1], `CN(C)CCCNC1COc2ccc(Cl)cc2C(=O)C1` (racemic) [Compound 6, rac.-3-(γ-dimethylamino-propylamino)-7-chloro-3,4-dihydro-1-benzoxepin-5(2H)-one] gave an LD50 at 168 h of 296 mg/kg. For the same compound, in series [2], the inhibition in vivo at 20 mg/kg is 29% and the “Factor of the Increase in Amplitude” value is recorded as 3.4.
Regarding `CCCCNC1COc2ccccc2C(=O)C1` (racemic) [Compound 7, rac.-3-(n-butylamino)-3,4-dihydro-1-benzoxepin-5(2H)-one], in series [2], the inhibition in vivo at 20 mg/kg was found to be 28% and the “Factor of the Increase in Amplitude” value amounted to 6.6.
Turning to `CN[C@@H]1COc2ccccc2[C@H](O)C1` (relative stereo) [A], the LD50 at 168 h in series [1] turned out to be 342 mg/kg.
Consider `CC(C)N[C@@H]1COc2ccccc2[C@H](O)C1` (relative stereo) [C], for which the inhibition in vivo at 20 mg/kg in series [2] amounted to 13%.
In turn, `O[C@@H]1C[C@H](NCc2ccccc2)COc2ccccc21` (relative stereo) [D] had an LD50 at 168 h in series [1] of 92 mg/kg. Moreover, the inhibition in vivo at 20 mg/kg in series [2] turned out to be 21%.
In series [1], `CN(C)CCCN[C@@H]1COc2ccccc2[C@H](O)C1` (relative stereo) [E] showed an LD50 at 168 h of 664 mg/kg. In addition, the inhibition in vivo at 20 mg/kg in series [2] was found to be 32%.
Regarding `CCN(CC)[C@@H]1COc2ccccc2[C@H](O)C1` (relative stereo) [F], the LD50 at 168 h in series [1] came out at 183 mg/kg.
For `O[C@@H]1C[C@H](N2CCCC2)COc2ccccc21` (relative stereo) [K], the inhibition in vivo at 20 mg/kg in series [2] stood at 10%.
For the compound `CN(C)[C@@H]1COc2ccccc2[C@H](O)C1` (relative stereo) [O], in series [2], the inhibition in vivo at 20 mg/kg amounted to 7%.

(Values after patent US4279904A, “3-Amino-1-benzoxepine derivatives and their salts and pharmaceutical compositions thereof” (Kali-Chemie Pharma GmbH, priority 1979, dated 1981).)
